This test deals with Enterococcus faecalis. Kind of test: Antimicrobial activity against vancomycin-resistant Enterococcus faecalis NCTC12201 after 8 hrs.

On to `Nc1c(O)cccc1C(=O)C[C@H](N)C(=O)O`, for which the IC50 amounted to 30 µM.

(Values after BindingDB's records for doi:10.1021/acsmedchemlett.7b00169 (2017).)
